The values below come from patent publication US10618916B2, “Heterocyclic compounds as immunomodulators” (Incyte Corporation, priority 2018, dated 2020).

For experiment [1], the target named is PD-1/PD-L1 protein/protein interaction (recombinant human PD-L1 and human PD-1) (Homo sapiens (Human), UniProt Q9NZQ7). Nature of the experiment: Homogeneous Time-Resolved Fluorescence (HTRF) PD-1/PD-L1 binding assay. The method, boiled down:
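Human PD-L1 (19-238, C-His; 10 nM final) and PD-1 (25-167, C-Fc; 3 nM final) preincubated 40 min with inhibitor in PBS pH 7.4, 0.05% Tween-20, 0.1% BSA, 1% DMSO, 25 °C. Eu-anti-human IgG (1 nM) and anti-His-APC (20 nM) added for 60 min; 665/620 nm ratio; IC50 from percent-control curves.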
On the technique in general: In TR-FRET formats the signal depends on donor and acceptor labels being close together.

Experiment [2] has as its system U2OS/PD-L1 cells and Jurkat-PD-1-SHP cells. Kind of experiment: Src homology region 2 domain-containing phosphatase (SHP) assay. The format is cell-based. The following applies: Homo sapiens, U2OS. The gist of the method: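 U2OS/PD-L1 and Jurkat-PD-1-SHP cells (5000 each per well) were co-incubated with compound for 2 h at 37 °C in RPMI1640 with 1% FBS, 0.05% DMSO final. PathHunter chemiluminescence was read after 1 h at room temperature, and IC50 was fitted from percent of DMSO-control activity.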

Experiment [3] deals with PD-L1 aAPC/CHO-K1 cells and Jurkat-PD-1-NFAT effector cells. Kind of experiment: Nuclear factor of activated T-cells (NFAT) assay. The format is cell-based. The following applies: Cricetulus griseus, CHO-K1. The gist of the method:
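CHO-K1 cells expressing PD-L1 aAPC were co-cultured with Jurkat-PD-1-NFAT effector cells in RPMI 1640 with 1% FBS and compound (0.4% DMSO; top concentration 2 μM) for 24 h at 37 °C. Bio-Glo luminescence was read, fold induction normalised to DMSO wells, and EC50 fitted from percent of control compound activity.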

Experiment [4] has as its target PD-L1 (Homo sapiens (Human), UniProt Q9NZQ7). Nature of the experiment: PD-L1 whole blood internalization assay. To be noted: 24 HR, PD-L1 expression on CD14+ cells, human interferon γ. It counts as cell-based. Here is the method: Example D. PD-L1 Whole Blood Internalization Assay
To determine PD-L1 internalization in human whole blood, normal human blood (Biological Specialty Corp, Colmar. Pa.) was incubated in the presence or absence of a concentration range of test compounds and 1 ng/ml human interferon γ (R&D Systems Inc. Minn. […] Blood was then stained with PD-L1 (MIH1, eBioscience; or BD Biosciences San Jose, Calif.), CD14 (Life Technologies, Carlsbad, Calif.) for 30 minutes in the dark at room temperature. Whole Blood/red cells were lysed/fixed (lysis buffer BD Biosciences) for 5 minutes at 37° C. in the dark and then centrifuged at 1600 RPM for 5 minutes. Cells were resuspended in Stain Buffer (BD Bioscience, San Jose, Calif.) and transferred into 96 well round bottom plates (Corning). Cells were gated on CD14+(BD Biosciences) and PD-L1 expression determined by mean fluorescence intensity (MFI) (BD LSRFortessa™ X-20). IC50 determination was performed by fitting the curve of compound percent inhibition versus the log of the compound concentration using the GraphPad Prism 7.0 software.

Some results are limits rather than exact numbers.

PD-L1, sequence (Q9NZQ7 19-290): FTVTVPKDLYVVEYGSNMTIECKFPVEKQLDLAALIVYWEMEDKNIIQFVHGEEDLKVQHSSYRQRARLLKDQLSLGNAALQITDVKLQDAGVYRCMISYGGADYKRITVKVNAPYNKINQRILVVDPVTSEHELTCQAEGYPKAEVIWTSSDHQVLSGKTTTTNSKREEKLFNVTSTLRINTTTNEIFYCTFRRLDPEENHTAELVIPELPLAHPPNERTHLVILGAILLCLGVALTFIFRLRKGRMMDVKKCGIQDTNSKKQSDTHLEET
PD-1/PD-L1 protein/protein interaction (recombinant human PD-L1 and human PD-1), sequence (Q9NZQ7 19-238): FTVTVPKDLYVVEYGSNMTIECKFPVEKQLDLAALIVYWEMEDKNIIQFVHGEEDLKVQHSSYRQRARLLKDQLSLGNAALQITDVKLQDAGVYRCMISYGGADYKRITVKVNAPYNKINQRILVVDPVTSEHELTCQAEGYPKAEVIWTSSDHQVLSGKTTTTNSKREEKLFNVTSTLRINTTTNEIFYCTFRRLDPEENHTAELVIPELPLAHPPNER

With `C[C@H](O)CN1CCc2c(nc(C(=O)Nc3cccc(-c4cccc(NC(=O)c5nc6c(n5C)CCN(CCC57CCC(C(=O)O)(CC5)C7)C6)c4Cl)c3Cl)n2C)C1` [Example 14, (S)-4-(2-(2-((2,2′-dichloro-3′-(5-(2-hydroxypropyl)-1-methyl-4,5,6,7-tetrahydro-1H-imidazo[4,5-c]pyridine-2-carboxamido)-[1,1′-biphenyl]-3-yl)carbamoyl)-1-methyl-1,4,6,7-tetrahydro-5H-imidazo[4,5-c]pyridin-5-yl)ethyl)bicyclo[2.2.1]heptane-1-carboxylic acid], the figures for the IC50 in experiment [1], in experiment [2] and in experiment [4] were no more than 5 nM, no more than 10 nM and 10 to 100 nM, respectively. Also, the EC50 (in general, the midpoint of the concentration-response curve) in experiment [3] lay within 10 to 100 nM.

Turning to `Cn1c(C(=O)Nc2cccc(-c3cccc(NC(=O)c4nc5c(n4C)CCN(CCC46CCC(C(=O)O)(CC4)C6)C5)c3Cl)c2Cl)nc2c1CCN(CCO)C2` [Example 15, 4-(2-(2-((2,2′-dichloro-3′-(5-(2-hydroxyethyl)-1-methyl-4,5,6,7-tetrahydro-1H-imidazo[4,5-c]pyridine-2-carboxamido)-[1,1′-biphenyl]-3-yl)carbamoyl)-1-methyl-1,4,6,7-tetrahydro-5H-imidazo[4,5-c]pyridin-5-yl)ethyl)bicyclo[2.2.1]heptane-1-carboxylic acid], the values for the half-maximal inhibitory concentration (IC50) in experiment [1], in experiment [2] and in experiment [4] were no more than 5 nM, no more than 10 nM and 10 to 100 nM, respectively. For the same molecule, the 50% effective concentration (EC50) in experiment [3] lay within 10 to 100 nM.

In the case of `Cn1c(C(=O)Nc2cccc(-c3cccc(NC(=O)c4nc5c(n4C)CCN(CCC46CCC(C(=O)O)(CC4)C6)C5)c3Cl)c2Cl)nc2c1CCN(CCCO)C2` [Example 16, 4-(2-(2-((2,2′-dichloro-3′-(5-(3-hydroxypropyl)-1-methyl-4,5,6,7-tetrahydro-1H-imidazo[4,5-c]pyridine-2-carboxamido)-[1,1′-biphenyl]-3-yl)carbamoyl)-1-methyl-1,4,6,7-tetrahydro-5H-imidazo[4,5-c]pyridin-5-yl)ethyl)bicyclo[2.2.l]-heptane-1-carboxylic acid], the IC50 (usually the midpoint of a concentration-inhibition curve) is no more than 5 nM in experiment [1], no more than 10 nM in experiment [2] and 10 to 100 nM in experiment [4]. In addition, the EC50 in experiment [3] was no more than 10 nM.

With `Cn1c(C(=O)Nc2cccc(-c3cccc(NC(=O)c4nc5c(n4C)CCN(CCC46CCC(C(=O)O)(CC4)C6)C5)c3Cl)c2Cl)nc2c1CCN(CCC13CCC(C(=O)O)(CC1)C3)C2` [Example 17, 4,4′-(((((2,2′-dichloro-[1,1′-biphenyl]-3,3′-diyl)bis(azanediyl))bis(carbonyl))bis(1-methyl-1,4,6,7-tetrahydro-5H-imidazo[4,5-c]pyridine-2,5-diyl))bis(ethane-2,1-diyl))bis(bicyclo[2.2.1]heptane-1-carboxylic acid)], the half-inhibitory concentration (IC50) in experiment [1] was no more than 5 nM; in experiment [2], no more than 10 nM; in experiment [4] it was 10 to 100 nM. The molecule also had an EC50 in experiment [3] of 10 to 100 nM.

As for `Cn1c(C(=O)Nc2cccc(-c3cccc(NC(=O)c4nc5c(n4C)CCN(CC46CCC(C(=O)O)(CC4)C6)C5)c3Cl)c2Cl)nc2c1CCN(CCC13CCC(C(=O)O)(CC1)C3)C2` [Example 18, 4-((2-((3′-(5-(2-(4-carboxybicyclo[2.2.1]heptan-1-yl)ethyl)-1-methyl-4,5,6,7-tetrahydro-1H-imidazo[4,5-c]pyridine-2-carboxamido)-2,2′-dichloro-[1,1′-biphenyl]-3-yl)carbamoyl)-1-methyl-1,4,6,7-tetrahydro-5H-imidazo[4,5-c]pyridin-5-yl)methyl)bicyclo[2.2.1]heptane-1-carboxylic acid], the IC50 in experiment [1] was no more than 5 nM; in experiment [2], no more than 10 nM; in experiment [4] it was 10 to 100 nM. The molecule further gave an EC50 in experiment [3] of 10 to 100 nM.

Turning to `Cn1c(C(=O)Nc2cccc(-c3cccc(NC(=O)c4nc5c(n4C)CCN(CC(=O)O)C5)c3Cl)c2Cl)nc2c1CCN(CCC13CCC(C(=O)O)(CC1)C3)C2` [Example 19, 4-(2-(2-((3′-(5-(carboxymethyl)-1-methyl-4,5,6,7-tetrahydro-1H-imidazo[4,5-c]pyridine-2-carboxamido)-2,2′-dichloro-[1,1′-biphenyl]-3-yl)carbamoyl)-1-methyl-1,4,6,7-tetrahydro-5H-imidazo[4,5-c]pyridin-5-yl)ethyl)bicyclo[2.2.1]heptane-1-carboxylic acid], the IC50 is no more than 5 nM in experiment [1], no more than 10 nM in experiment [2] and 10 to 100 nM in experiment [4]. The EC50 in experiment [3] fell in the range of 10 to 100 nM.

With `Cn1c(C(=O)Nc2cccc(-c3cccc(NC(=O)c4nc5c(n4C)CCN(CCC46CCC(C(=O)O)(CC4)C6)C5)c3Cl)c2Cl)nc2c1CCN(CCCC(=O)O)C2` [Example 20, 4-(2-(2-((3′-(5-(3-carboxypropyl)-1-methyl-4,5,6,7-tetrahydro-1H-imidazo[4,5-c]pyridine-2-carboxamido)-2,2′-dichloro-[1,1′-biphenyl]-3-yl)carbamoyl)-1-methyl-1,4,6,7-tetrahydro-5H-imidazo[4,5-c]pyridin-5-yl)ethyl)bicyclo[2.2.1]heptane-1-carboxylic acid], the values for the concentration for half-maximal inhibition (IC50) in experiment [1], in experiment [2] and in experiment [4] were no more than 5 nM, no more than 10 nM and 10 to 100 nM, respectively. In addition, in experiment [3], the EC50 lay within 10 to 100 nM.

Consider `Cn1c(C(=O)Nc2cccc(-c3cccc(NC(=O)c4nc5c(n4C)CCN(CC(C)(C)C(=O)O)C5)c3Cl)c2Cl)nc2c1CCN(CCC13CCC(C(=O)O)(CC1)C3)C2` [Example 21, 4-(2-(2-((3′-(5-(2-carboxy-2-methylpropyl)-1-methyl-4,5,6,7-tetrahydro-1H-imidazo[4,5-c]pyridine-2-carboxamido)-2,2′-dichloro-[1,1′-biphenyl]-3-yl)carbamoyl)-1-methyl-1,4,6,7-tetrahydro-5H-imidazo[4,5-c]pyridin-5-yl)ethyl)bicyclo[2.2.1]heptane-1-carboxylic acid], for which the IC50 was no more than 5 nM in experiment [1], no more than 10 nM in experiment [2] and 10 to 100 nM in experiment [4]. The molecule also yielded an EC50 in experiment [3] of 10 to 100 nM.

With `Cn1c(C(=O)Nc2cccc(-c3cccc(NC(=O)c4nc5c(n4C)CCN(CC4(C(=O)O)CC4)C5)c3Cl)c2Cl)nc2c1CCN(CCC13CCC(C(=O)O)(CC1)C3)C2` [Example 22, 4-(2-(2-((3′-(5-((1-carboxycyclopropyl)methyl)-1-methyl-4,5,6,7-tetrahydro-1H-imidazo[4,5-c]pyridine-2-carboxamido)-2,2′-dichloro-[1,1′-biphenyl]-3-yl)carbamoyl)-1-methyl-1,4,6,7-tetrahydro-5H-imidazo[4,5-c]pyridin-5-yl)ethyl)bicyclo[2.2.1]heptane-1-carboxylic acid], the results for the half-inhibitory concentration (IC50) in experiment [1], in experiment [2] and in experiment [4] were no more than 5 nM, no more than 10 nM and 10 to 100 nM, respectively. Further, in experiment [3], the EC50 was 10 to 100 nM.

Turning to `Cn1c(C(=O)Nc2cccc(-c3cccc(NC(=O)c4nc5c(n4C)CCN(CC46CCC(C(=O)O)(CC4)CC6)C5)c3Cl)c2Cl)nc2c1CCN(CCC13CCC(C(=O)O)(CC1)C3)C2` [Example 23, 4-((2-((3′-(5-(2-(4-carboxybicyclo[2.2.1]heptan-1-yl)ethyl)-1-methyl-4,5,6,7-tetrahydro-1H-imidazo[4,5-c]pyridine-2-carboxamido)-2,2′-dichloro-[1,1′-biphenyl]-3-yl)carbamoyl)-1-methyl-1,4,6,7-tetrahydro-5H-imidazo[4,5-c]pyridin-5-yl)methyl)bicyclo[2.2.2]octane-1-carboxylic acid], the 50% inhibitory concentration (IC50) in experiment [1] was no more than 5 nM; in experiment [2], no more than 10 nM; in experiment [4], 100 to 500 nM. This molecule also returned an EC50 in experiment [3] of 10 to 100 nM.

Consider `Cn1c(C(=O)Nc2cccc(-c3cccc(NC(=O)c4nc5c(n4C)CCN(CC46CC(C(=O)O)(C4)C6)C5)c3Cl)c2Cl)nc2c1CCN(CCC13CCC(C(=O)O)(CC1)C3)C2` [Example 24, 3-((2-((3′-(5-(2-(4-carboxybicyclo[2.2.1]heptan-1-yl)ethyl)-1-methyl-4,5,6,7-tetrahydro-1H-imidazo[4,5-c]pyridine-2-carboxamido)-2,2′-dichloro-[1,1′-biphenyl]-3-yl)carbamoyl)-1-methyl-1,4,6,7-tetrahydro-5H-imidazo[4,5-c]pyridin-5-yl)methyl)bicyclo[1.1.1]-pentane-1-carboxylic acid], for which the IC50 in experiment [1] was no more than 5 nM; in experiment [2], no more than 10 nM; in experiment [4], 10 to 100 nM. Moreover, in experiment [3], the EC50 lay in the range of 10 to 100 nM.
